Test results from patent publication US4423221A, “7-Carboethoxy-morphinan-6-one compounds” (SISA Pharmaceutical Laboratories, Inc., priority 1982, dated 1983).

Tests used:
mice = experiment: Acetic acid mouse writhing test (analgesic effects); assay type: in vivo, male CD-1 mice; settings: subcutaneous, 0.5% acetic acid i.p. 15 min post drug, writhes counted over 20 min; for ED50: Mus musculus, sc, read-out: ED50 (dose required to reduce the number of writhes by 50%)
Procedure: (A) Analgesic effects upon mice (acetic acid writhing test).
Acetic Acid Mouse Writhing Test
Analgesic effects of the test compounds were determined in mice by use of the acetic acid writhing test described by B. A. Whittle, Brit. J. Pharmacol., 22:246 (1964). In this test, at least 3 groups of 5 male CD-1 mice each were given subcutaneous doses of the test drug dissolved in distilled water. In all cases, 0.4 milliliters of a 0.5% V/V acetic acid in distilled water solution was administered intraperitoneally 15 minutes post drug. The number of writhes in a 20 minute interval beginning 5 minutes after the acetic acid injection were determined and compared with the number of writhes in a control group which had received only acetic acid.
Percent inhibition of writhing was calculated as: [formula]
The ED50 dose, i.e., the dose required to reduce the number of writhes by 50%, was determined graphically from a plot of % inhibition as a probit verus log dose. Confidence limits of 95% were calculated on the basis of those results falling in the range 16-84% inhibition. See Lichtfield, J. T. and Wilcoxon, F., J. Pharmacol. Exp. Ther., 96, 99-113 (1949).

rats = experiment: Narcotic antagonist activity, modified rat tail flick test (against ED80 dose of morphine); assay type: in vivo, male albino Wistar rats; settings: ip, test drug intraperitoneally, ED80 dose of morphine s.c. 10 min later, retest 20 min after morphine, read-out: AD50 (dose required to inhibit the effect of morphine by 50%)
Procedure: (B) Narcotic antagonist activity in rats (modified rat tail flick test).
Evaluation of Narcotic Antagonist Activity
The narcotic antagonist effect of the test compound was determined by a modification of the rat tail flick procedure of Harris and Pierson (J. Pharmacol. Exp. Ther., 143:141 [1964]).
Male albino Wistar rats (100-120 g) were used for this study. A rat's tail is so placed so as to cover a photocell. Heat is applied by a lamp in a reflector with a timer being connected to the lamp and photocell so that the timer goes on when the light is turned on and is turned off when the photocell is uncovered. A rheostat, incorporated into a heating lamp, is used to adjust the intensity of the light falling on the tail of the rat such that the rat's control reaction time is from 2 to 4 seconds. Animals with a control reaction time outside this range are rejected. The rheostat adjustment is made only if a significant proportion (1 out of every 10 rats) of the reaction times are outside the range of 2 to 4 seconds. Groups of 5 rats were used, and 2 control times were determined at 60 and 30 minutes prior to […] injection of the drug.
At least 30 minutes after the last control run the test drug was given intraperitoneally. This was followed 10 minutes later by an ED80 dose of morphine subcutaneously. The animals were retested at 20 minutes after the morphine injection. Control animals were given vehicle and morphine only. The data were calculated as follows: [formula]
The data were plotted on log-probit paper and AD50 values, i.e., the dose required to inhibit the effect of morphine by 50% within 95% confidence limits, were determined by the method of Lichtfield and Wilcoxon.

SMILES | ED50 (mice) | ED50 (dose required to reduce the number of writhes by 50%) (mice) | ED50 (rats)
CCOC(=O)C1C[C@H]2[C@H]3Cc4ccc(OC)cc4[C@@]2(CCN3C)CC1=O (stereo partly drawn) [TR-5318, 7-carboethoxy-3-methoxy-17-methylmorphinan-6-one] | 4.6 mg/kg |  | 
CCOC(=O)C1CC2C3Cc4ccc(OC)cc4C2(CCN3CC2CCC2)CC1=O (stereo not drawn) [TR-5300, 7-carboethoxy-17-cyclobutylmethyl-3-methoxy-morphinan-6-one] |  | IA 10.0 | 13 mg/kg
CCOC(=O)C1C[C@H]2[C@H]3Cc4ccc(O)cc4[C@@]2(CCN3CC2CCC2)CC1=O (stereo partly drawn) [TR-5307, 7-carboethoxy-17-cyclobutylmethyl-3-hydroxy-morphinan-6-one] | 1.15 mg/kg |  | > 10 mg/kg
CCOC(=O)C1C[C@H]2[C@H]3Cc4ccc(O)cc4[C@@]2(CCN3C)CC1=O (stereo partly drawn) [TR-5320, 7-carboethoxy-3-hydroxy-17-methylmorphinan-6-one] | 0.72 mg/kg |  | 3.6 mg/kg
CCOC(=O)C1C[C@@H]2[C@H]3Cc4ccc(OC)cc4[C@@]2(CCN3C)CC1=O (stereo partly drawn) [TR-5336, 7-carboethoxy-3-methoxy-17-methyl-14α-morphinan-6-one] | > 10 mg/kg |  | 
CCOC(=O)C1C[C@H]2[C@H]3Cc4ccc(OC)cc4[C@@]2(CCN3CC2CC2)CC1=O (stereo partly drawn) [TR-5299, 7-carboethoxy-17-cyclopropylmethyl-3-methoxy-morphinan-6-one] | > 10 mg/kg |  | 13 mg/kg
CCOC(=O)C1C[C@@H]2[C@H]3Cc4ccc(O)cc4[C@@]2(CCN3C)CC1=O (stereo partly drawn) [TR-5338, 7-carboethoxy-3-hydroxy-17-methyl-14α-morphinan-6-one] | 0.6 mg/kg |  | 0.7 mg/kg
CCOC(=O)C1C[C@H]2[C@H]3Cc4ccc(O)cc4[C@@]2(CCN3CC2CC2)CC1=O (stereo partly drawn) [TR-5308, 7-carboethoxy-17-cyclopropylmethyl-3-hydroxy-morphinan-6-one] | 4.9 mg/kg |  | 3.12 mg/kg
CCOC(=O)C1C[C@@H]2[C@H]3Cc4ccc(O)cc4[C@@]2(CCN3CC2CC2)CC1=O (stereo partly drawn) [TR-5339, 7-carboethoxy-17-cyclopropylmethyl-3-hydroxy-14α-morphinan-6-one] | 3.7 mg/kg |  | 2.54 mg/kg
CCOC(=O)C1C[C@@H]2[C@H]3Cc4ccc(OC)cc4[C@@]2(CCN3CC2CC2)CC1=O (stereo partly drawn) [TR-5337, 7-carboethoxy-17-cyclopropylmethyl-3-methoxy-14α-morphinan-6-one] |  | IA 10.0 | > 10 mg/kg
